Test results published in US12336986B2, “Treatment and prevention of ocular neurodegenerative disorder” (The Jackson Laboratory, priority 2015, dated 2025).
“Also recorded” adds a separate entry of the source.

Experiments:
[1] = cited from earlier work
DBA/2J (D2) mice [2] = assay: Optic nerve assessment (PPD staining) and determination of glaucomatous damage in D2 mice; format: in vivo, mouse; conditions: for risk factor of developing glaucoma (nerves with severe glaucoma): D2 mice at 12 months, control 0.6
Text: This diet has no effects on the ocular health of the mice.
PPD stains the myelin sheath of all axons but darkly stains the axoplasm of only damaged axons.
Briefly, intracranial portions of optic nerves were fixed in 4% PFA at RT for 48 hrs, processed and embedded in plastic. A segment of optic nerve from within a region up to 1 mm from the posterior surface of the sclera was sectioned (1 μm thick sections) and stained with PPD. Typically 30-50 sections are taken from each nerve.
Multiple sections of each nerve were considered when determining damage level. Optic nerves were analyzed and determined to have one of 3 damage levels: • (1) No or early damage (NOE) less than 5% axons damaged and no gliosis. This level of damage is seen in age and sex matched non-glaucomatous mice and is not due to glaucoma.

[3] = system: dendritic mitochondria of D2 RGCs; assay: Electron microscopy of RGC dendritic mitochondria (cristae); format: in vivo, mouse; conditions: D2 mice, NAM 550 mg/kg/day
Protocol: Mice were euthanized, eyes enucleated, and then fixed ON in Smith-Ruda (0.8% PFA and 1.2% gluteraldehyde in 0.1 M phosphate buffer). The cornea and lens were dissected off and the remaining posterior eye-cup (containing the retina and ONH) were post-fixed in 2% aqueous osmium tetroxide and dehydrated in ethyl alcohol. Samples were then infiltrated and flat-mounted in Embed 812/Araldite resin (Electron Microscopy Sciences) to allow en face sections. Blocks were polymerized at 60° C. for 48 hrs and 90 nm microtome sections were cut (Leica UC6, Leica) onto 300 mesh copper grids. Grids were stained with 1% aqueous uranyl acetate/Reynold's lead citrate and were viewed on a JEOL JEM 1230 TEM. Images were collected on an AMT 2K camera.

DBA/2J (D2) mice [4] = assay: Clinical phenotyping: intraocular pressure (IOP) and iris disease in D2 mice; format: in vivo, mouse
Protocol: IOP elevation in D2 mice is subsequent to a pigment dispersing iris disease. In all experiments, the progression of the iris disease and intraocular pressure in mutant or drug-treated mice was compared to control D2 mice as previously described (John et al., Invest Ophthalmol Vis Sci 39, 951-962, 1998). In each experiment, iris disease and intraocular pressure were assessed.
Iris disease was assessed at two-month intervals starting at 6 months of age until experiment completion.
Intraocular pressure was measured at 45-day intervals beginning at 8.5-9 month until experiment completion.

dorsal root ganglion = conditions: U.S. Pat. No. 7,776,326; cited from earlier work
PARP = PARP activation (pan-PARP immunostaining) in D2 retinas; format: in vivo, mouse; conditions: NAM 550 mg/kg/day
Protocol: (§1) For immunofluorescence staining, mice were euthanized by cervical dislocation, their eyes enucleated and placed in 4% PFA ON. Retinas were dissected and flat-mounted onto slides, permeabilized with 0.1% Triton-X for 15 mins, blocked with 2% BSA in PBS and stained ON at RT in primary antibody (see below for list of antibodies).
(§2) After primary antibody incubation, retinas were washed 5 times in PBS, stained for 4 hrs at RT with secondary antibody. Slides were then washed a further 5 times with PBS, stained with DAPI for 15 mins, mounted with fluoromount, coverslipped and sealed with nail-polish.
(§3) For retinal sections, eyes were cryoprotected in 30% sucrose ON, frozen in OCT and cryosectioned at 18 μm. Slides were warmed to room temperature and the procedure above was followed. Retinas were imaged on a Zeiss AxioObserver for low resolution counts. Retinal sections were imaged on a Leica SP8 far higher resolution images.

γH2AX = assay: DNA damage (γH2AX staining) in D2 retinas; format: in vivo, mouse; conditions: D2 mice, early glaucoma, NAM 550 mg/kg/day
Protocol: as §1, §2, §3

## NC(=O)c1cccnc1 [NAM, nicotinamide]
[1]; humans, attributed to impurities in older preparations
  doses with an incidence of hepatotoxicity: > 4 grams NAM per day
[1]; survey of 6000 patients on high doses
  cases of jaundice reported: 3
DBA/2J (D2) mice [2]; high dose NAM 2,000 mg/kg/day
  risk factor of developing glaucoma (nerves with severe glaucoma): 0.06
DBA/2J (D2) mice [2]; low dose NAM 550 mg/kg/day
  risk factor of developing glaucoma (nerves with severe glaucoma): 0.36
DBA/2J (D2) mice [2]; D2 mice bearing the Wld^S mutation, NAM 550 mg/kg/day
  protection against glaucoma compared to Wld^S alone: better protects against glaucoma than Wld^S alone; also recorded: significantly better than Wld^S alone
DBA/2J (D2) mice [2]; D2 mice carrying the Wld^S mutation, NAM 550 mg/kg/day from 6 months
  protection from glaucomatous damage (no glaucoma): ~95%
DBA/2J (D2) mice [2]; D2 mice, NAM 2000 mg/kg/d (NAM^Hi), 12 months of age
  treated eyes having no glaucomatous optic nerve damage: 93%
DBA/2J (D2) mice [2]; D2 mice, NAM alone (550 mg/kg/day)
  protective in glaucoma: about 70%
DBA/2J (D2) mice [2]; D2 mice, high dose NAM 2,000 mg/kg/day
  decrease in risk factor of developing glaucoma: 10 fold
DBA/2J (D2) mice [2]; D2 mice, low dose NAM 550 mg/kg/day
  drop in risk factor: ~2 fold
[3]
  mitochondrial dysfunction / abnormal cristae in dendritic mitochondria (EM): sufficient to inhibit the formation of dysfunctional mitochondria; also recorded: prevents early mitochondrial dysfunction
DBA/2J (D2) mice [4]; NAM 550 mg/kg/d
  IOP: did not alter IOP; also recorded: IOP was not altered
DBA/2J (D2) mice [4]; NAM 2000 mg/kg/d
  degree of IOP elevation: lessens the degree of IOP elevation
Dorsal root ganglion
  axonal degeneration after axotomy: did not work to diminish axonal degeneration
PARP
  PARP activation / expression: decreased PARP activation; also recorded: prevents PARP activation
γH2AX
  DNA damage (γH2AX staining): limited levels of DNA damage; also recorded: prevents DNA damage
